Experimental data: ChEMBL document CHEMBL6109100, “Discovery of novel benzoxazole analogues as potential anticancer agent selectively targeting aromatase” (Bioorg Med Chem, 2025)
One block for each compound: values may come before it.

How the values were obtained:
MCF7 = assay: Cytotoxicity against human MCF7 cells assessed as reduction in cell viability measured after 48 hrs by SRB assay; type: functional
MDA-MB-231 [1] = assay: Cytotoxicity against human MDA-MB-231 cells assessed as reduction in cell viability measured after 48 hrs by SRB assay; type: functional
BT-549 = assay: Cytotoxicity against human BT-549 cells assessed as reduction in cell viability measured after 48 hrs by SRB assay; type: functional
T47D = assay: Cytotoxicity against human T47D cells assessed as reduction in cell viability measured after 48 hrs by SRB assay; type: functional
MDA-MB-468 = assay: Cytotoxicity against human MDA-MB-468 cells assessed as reduction in cell viability measured after 48 hrs by SRB assay; type: functional
[2] = Cytotoxicity against African green monkey Vero cells assessed as reduction in cell viability measured after 48 hrs by SRB assay; type: toxicity, cell-based; conditions: chlorocebus sabaeus
Aromatase [3] = target: T1, Aromatase (Homo sapiens, UniProt P11511); assay: Inhibition of aromatase in human MCF7 cells using androstenedione as substrate measured after 2 hrs; type: cell-based
T1 sequence (P11511 whole entry): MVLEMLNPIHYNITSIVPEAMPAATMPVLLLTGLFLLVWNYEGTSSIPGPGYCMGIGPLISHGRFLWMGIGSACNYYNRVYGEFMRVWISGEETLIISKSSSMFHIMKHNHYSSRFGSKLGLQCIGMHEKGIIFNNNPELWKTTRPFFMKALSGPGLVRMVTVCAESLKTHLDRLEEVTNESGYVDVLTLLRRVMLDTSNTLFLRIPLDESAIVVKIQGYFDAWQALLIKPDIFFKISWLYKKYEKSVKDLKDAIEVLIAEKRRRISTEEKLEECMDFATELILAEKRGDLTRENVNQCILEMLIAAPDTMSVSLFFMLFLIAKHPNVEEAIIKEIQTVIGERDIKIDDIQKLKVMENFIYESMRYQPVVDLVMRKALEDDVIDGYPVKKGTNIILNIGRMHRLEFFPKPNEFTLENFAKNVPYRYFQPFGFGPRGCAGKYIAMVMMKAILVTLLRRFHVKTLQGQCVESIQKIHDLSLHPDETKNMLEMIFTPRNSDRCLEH

[4] = target: Poly [ADP-ribose] polymerase 2 (Homo sapiens, UniProt Q9UGN5); assay: Inhibition of PARP-2 (unknown origin)
Sequence of Poly [ADP-ribose] polymerase 2 (Q9UGN5 whole entry): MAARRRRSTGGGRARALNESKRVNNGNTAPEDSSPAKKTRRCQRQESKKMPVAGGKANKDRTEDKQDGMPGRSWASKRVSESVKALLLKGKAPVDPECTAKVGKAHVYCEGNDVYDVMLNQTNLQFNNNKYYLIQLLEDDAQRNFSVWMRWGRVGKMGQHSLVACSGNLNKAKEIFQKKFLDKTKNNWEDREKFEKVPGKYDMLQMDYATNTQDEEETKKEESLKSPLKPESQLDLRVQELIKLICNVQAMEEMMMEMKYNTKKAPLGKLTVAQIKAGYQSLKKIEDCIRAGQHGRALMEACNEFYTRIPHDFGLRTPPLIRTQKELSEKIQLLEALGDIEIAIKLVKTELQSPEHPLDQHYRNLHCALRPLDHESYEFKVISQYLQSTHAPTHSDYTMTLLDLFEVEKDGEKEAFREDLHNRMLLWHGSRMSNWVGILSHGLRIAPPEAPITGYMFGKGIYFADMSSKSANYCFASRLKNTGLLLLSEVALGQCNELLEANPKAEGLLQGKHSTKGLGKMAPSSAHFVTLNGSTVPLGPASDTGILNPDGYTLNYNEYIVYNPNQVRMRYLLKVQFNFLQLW

Histone deacetylase = assay: Inhibition of HDAC (unknown origin); type: protein assay, Homo sapiens
Carbonic anhydrase 2 = Carbonic anhydrase 2 (Homo sapiens, UniProt P00918); assay: Inhibition of CA2 (unknown origin) using p-nitrophenyl acetate as substrate preincubated for 10 mins followed by substrate addition and measured after 30 mins by spectrophotometry
RPMI-8226 = assay: Cytotoxicity against human RPMI-8226 cells assessed as reduction in cell viability measured after 48 hrs by SRB assay; type: functional, cell-based; conditions: RPMI-8226, 48 h
MDA-MB-231 [5] = assay: Cytotoxicity against human MDA-MB-231 cells assessed as reduction in cell viability measured after 48 hrs by MTT assay; type: functional, cell-based; conditions: MDA-MB-231, 48 h
Aromatase [6] = target: T2, Aromatase (Rattus norvegicus, UniProt P22443); assay: Inhibition of rat aromatase measured after 2 hrs by ELISA
T2 sequence (P22443 whole entry): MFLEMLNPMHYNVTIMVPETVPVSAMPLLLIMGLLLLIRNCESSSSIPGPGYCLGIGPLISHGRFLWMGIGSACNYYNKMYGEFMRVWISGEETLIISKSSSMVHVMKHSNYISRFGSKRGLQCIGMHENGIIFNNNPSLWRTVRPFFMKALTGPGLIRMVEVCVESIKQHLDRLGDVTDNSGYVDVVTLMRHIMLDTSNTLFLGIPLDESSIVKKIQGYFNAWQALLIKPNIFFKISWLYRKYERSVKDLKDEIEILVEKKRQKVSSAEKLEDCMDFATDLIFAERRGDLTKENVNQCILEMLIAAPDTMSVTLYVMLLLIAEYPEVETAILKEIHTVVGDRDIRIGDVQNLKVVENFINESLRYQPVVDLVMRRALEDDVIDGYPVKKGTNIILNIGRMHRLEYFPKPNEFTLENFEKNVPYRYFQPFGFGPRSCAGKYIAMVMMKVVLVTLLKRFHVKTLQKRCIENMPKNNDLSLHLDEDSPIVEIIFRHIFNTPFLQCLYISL

Compound: CS(=O)(=O)N1CCN(Cc2nc3cc(F)ccc3o2)CC1
GI50 (MCF7): 29.8 µM

Compound: O=S(=O)(c1ccccc1)N1CCN(Cc2nc3cc(F)ccc3o2)CC1
GI50 (MCF7): 8.56 µM

Compound: O=S(=O)(c1ccc(F)cc1)N1CCN(Cc2nc3cc(F)ccc3o2)CC1
GI50 (MCF7): 6.52 µM

Compound: O=[N+]([O-])c1cccc(S(=O)(=O)N2CCN(Cc3nc4cc(F)ccc4o3)CC2)c1
GI50 (MCF7): 3.25 µM

Compound: O=[N+]([O-])c1ccccc1S(=O)(=O)N1CCN(Cc2nc3cc(F)ccc3o2)CC1
GI50 (MCF7): 5.95 µM

Compound: O=S(=O)(c1cccc2ccccc12)N1CCN(Cc2nc3cc(F)ccc3o2)CC1
GI50 (MCF7): 12.5 µM

Compound: CN(C)S(=O)(=O)N1CCN(Cc2nc3cc(F)ccc3o2)CC1
GI50 (MCF7): 18.3 µM

Compound: CCS(=O)(=O)N1CCN(Cc2nc3cc(F)ccc3o2)CC1
GI50 (MCF7): 14.4 µM

Compound: O=[N+]([O-])c1ccc(S(=O)(=O)N2CCN(Cc3nc4cc(F)ccc4o3)CC2)cc1
GI50 (MCF7): 1.02 µM

Compound: O=Cc1ccc(S(=O)(=O)N2CCN(Cc3nc4cc(F)ccc4o3)CC2)cc1
GI50 (MCF7): 2.45 µM

Compound: COc1ccccc1S(=O)(=O)N1CCN(Cc2nc3cc(F)ccc3o2)CC1
GI50 (MCF7): 4.63 µM

Compound: O=S(=O)(N1CCCCC1)N1CCN(Cc2nc3cc(F)ccc3o2)CC1
GI50 (MCF7): 9.33 µM

Compound: O=S(=O)(N1CCOCC1)N1CCN(Cc2nc3cc(F)ccc3o2)CC1
GI50 (MCF7): 10.3 µM

IC50 (Aromatase [3]): 0.0649 µM | IC50 [4]: 0.739 µM | IC50 (Histone deacetylase): 1.125 µM | IC50 (Carbonic anhydrase 2): 4.1 µM
Compound: CC(C)(C)c1ccc(S(=O)(=O)N2CCN(Cc3nc4cc(F)ccc4o3)CC2)cc1
GI50 (MCF7): 0.22 µM | GI50 (MDA-MB-231 [1]): 0.49 µM | GI50 (BT-549): 1.73 µM | GI50 (T47D): 2.55 µM | GI50 (MDA-MB-468): 0.87 µM | GI50 at 48 h [2]: 67.1 µM

Compound: CC(C)S(=O)(=O)N1CCN(Cc2nc3cc(F)ccc3o2)CC1
GI50 (MCF7): 21.6 µM

Compound: Cc1ccc(S(=O)(=O)N2CCN(Cc3nc4cc(F)ccc4o3)CC2)cc1
GI50 (MCF7): 1.73 µM

Compound: CN1CCN(S(=O)(=O)N2CCN(Cc3nc4cc(F)ccc4o3)CC2)CC1
GI50 (MCF7): 7.37 µM

Compound: O=S(=O)(C1CC1)N1CCN(Cc2nc3cc(F)ccc3o2)CC1
GI50 (MCF7): 25.1 µM

Compound: Cc1nc(Nc2nc3ccccc3o2)nc(-c2cccc([N+](=O)[O-])c2)c1C(=O)Nc1ccc(F)cc1Cl
IC50 (RPMI-8226): 0.72 µM

IC50 (Aromatase [6]): 3.93 µM
Compound: CC(C)(C#N)c1cc(Cn2cncn2)cc(C(C)(C)C#N)c1 [ANASTROZOLE]
IC50 (MDA-MB-231 [5]): 1.21 µM

Compound: COc1cccc2c1C(=O)c1c(O)c3c(c(O)c1C2=O)C[C@@](O)(C(=O)CO)C[C@@H]3O[C@H]1C[C@H](N)[C@H](O)[C@H](C)O1 [DOXORUBICIN]
GI50 (MCF7): 0.89 µM | GI50 (MDA-MB-231 [1]): 0.14 µM | GI50 (BT-549): 2.01 µM | GI50 (T47D): 3.78 µM | GI50 (MDA-MB-468): 0.53 µM | GI50 at 48 h [2]: 143 µM

IC50 (Aromatase [6]): 0.29 µM
Compound: N#Cc1ccc(C(c2ccc(C#N)cc2)n2cncn2)cc1 [LETROZOLE]
IC50 (MDA-MB-231 [5]): 1.27 µM
